Drawing on patent US6720346B2, “Thiazole benzamide derivatives and pharmaceutical compositions for inhibiting cell proliferation” (Agouron Pharmaceuticals, Inc., priority 2001, dated 2004), this text covers Ki and IC50 for 18 molecules.

In one test the target is T1, human CDK4/cyclin D3 (Homo sapiens, UniProt P11802).
T1 construct: made in house; host or cells: insect cells co-infected with baculovirus vectors
In words: Inhibition of CDK4/cyclin D retinoblastoma kinase activity (Ki; % inhibition). Format: biochemical. The settings on record: apparent Ki, CDK4/cyclin D3, Rb substrate. The procedure:
(§1) Cyclin-dependent kinase activity was measured by quantifying the enzyme-catalyzed, time-dependent incorporation of radioactive phosphate from [^32P]ATP or [^33P]ATP into a protein substrate. Unless noted otherwise, assays were performed in 96-well plates in a total volume of 50 μL, in the presence of 10 mM HEPES (N-[2-hydroxyethyl]piperazine-N′-[2-ethanesulfonic acid]) (pH 7.4), 10 mM MgCl2, 25 μM adenosine triphosphate (ATP), 1 mg/mL ovalbumin, 5 μg/mL leupeptin, 1 mM dithiothreitol, 10 mM β-glycerophosphate, 0.1 mM sodium vanadate, 1 mM sodium fluoride, 2.5 mM ethylene glycol-bis(β-aminoethyl ether)-N,N,N′N′-tetraacetic acid (EGTA), 2% (v/v) dimethylsulfoxide, and 0.03-0.4 μCi [^32/33P]ATP per reaction. Reactions were initiated with enzyme, incubated at 30° C., and terminated after 20 minutes by the addition of ethylenediaminetetraacetic acid (EDTA) to 250 mM. The phosphorylated substrate was then captured on a nitrocellulose or phosphocellulose membrane using a 96-well filtration manifold, and unincorporated radioactivity was removed by repeated washing with 0.85% phosphoric acid. Radioactivity was quantified by exposing the dried membranes to a phosphorimager.
(§2) Compounds from combinatorial libraries were screened from 96-well plates for % inhibition of CDK activity at 30 nM theoretical compound concentration. Inhibition was measured relative to control wells that contained all reaction components including 2% (v/v) DMSO but no compound, after subtraction of background radioactivity measured in the absence of enzyme. Apparent Ki values of discrete compounds were measured by assaying enzyme activity in the presence of different inhibitor compound concentrations and subtracting the background radioactivity measured in the absence of enzyme. The kinetic parameters (kcat, Km for ATP) were measured for each enzyme under the usual assay conditions by determining the dependence of initial rates on ATP concentration. Inhibition data were fit to an equation for competitive inhibition using Kaleidagraph (Synergy Software), or were fit to an equation for competitive tight-binding inhibition using the software KineTic (BioKin, Ltd.).
A complex of human CDK4 and genetically truncated (1-264) cyclin D3 was purified using traditional biochemical chromatographic techniques from insect cells that had been co-infected with the corresponding baculovirus expression vectors (see e.g., Meijer and Kim, “Chemical Inhibitors of Cyclin-Dependent Kinases,” Methods in Enzymol., 283 (1997), pp. 113-128.). The enzyme complex (5 nM) was assayed with 0.3-0.5 μg of purified recombinant retinoblastoma protein fragment (Rb) as a substrate. The engineered Rb fragment (residues 386-928 of the native retinoblastoma protein; 62.3 kDa) contains the majority of the phosphorylation sites found in the native 106-kDa protein, as well as a tag of six histidine residues for ease of purification. Phosphorylated Rb substrate was captured by microfiltration on a nitrocellulose membrane and quantified using a phosphorimager as described above. For measurement of tight-binding inhibitors, the assay duration was extended to 60 minutes, during which the time-dependence of product formation was linear and initial rate conditions were met.

Another test has as its target T2, CDK2/cyclin A (Homo sapiens, UniProt P24941).
T2 construct: made in house; host or cells: CDK2: insect cells (baculovirus); cyclin A: E. coli
Kind of test: Inhibition of CDK2/cyclin A retinoblastoma kinase activity (Ki; % inhibition). Format: biochemical. The settings on record: apparent Ki, CDK2/cyclin A, Rb substrate. The procedure: as §1, §2
CDK2 was purified using published methodology (Rosenblatt et al., “Purification and Crystallization of Human Cyclin-dependent Kinase 2,” J. Mol. Biol., 230, 1993, pp. 1317-1319) from insect cells that had been infected with a baculovirus expression vector. […] A complex of CDK2 and proteolyzed cyclin A was prepared and purified by gel filtration. The substrate for this assay was the same Rb substrate fragment used for the CDK4 assays, and the methodology of the CDK2/delta cyclin A and the CDK4/delta cyclin D3 assays was essentially the same, except that CDK2 was present at 10 nM or 19 nM. The duration of the assay was 60 or 75 minutes, during which the time-dependence of product formation was linear and initial rate conditions were met.

A further test relates to HCT-116 cell line. In words: Inhibition of cell growth, MTT tetrazolium salt assay. Type of test: cell-based. The note with it: Homo sapiens, HCT-116, 120 h; MTT, three to five days. The procedure: Inhibition of cell growth was measured using the tetrazolium salt assay, which is based on the ability of viable cells to reduce 3-(4,5-dimethylthiazol-2-yl)-2,5-[2H]-diphenyltetrazolium bromide (MTT) to formazan (Mossman, Journal of Immunological Methods, 65, (1983), pp. 55-58). The water-insoluble purple formazan product was then detected spectrophotometrically. The HCT-116 cell line was used as a representative cancer cell line and grown in 96-well plates. Cells were plated in McCoy's 5A Medium at a volume of 135 μl/well. Plates were incubated for four hours before addition of inhibitor compounds. Different concentrations of inhibitor compounds were added in 0.5% (v/v) dimethylsulfoxide (15 μL/well), and cells were incubated at 37° C. (5% CO2) for three to five days. At the end of the incubation, MTT was added to a final concentration of 0.2 mg/mL, and cells were incubated for 4 hours more at 37° C. After centrifugation of the plates and removal of medium, the absorbance of the formazan (solubilized in dimethylsulfoxide) was measured at 540 nm. The concentration of inhibitor compound causing 50% (IC50) or 90% ([…]) inhibition of growth was determined from the linear portion of a semi-log plot of inhibitor concentration versus percent inhibition. All results were compared to control cells treated only with 0.5% (v/v) dimethylsulfoxide.
(In general: Formazan colour is commonly taken as a measure of viable cells.)

Structures can show the parent of a compound that is named as a salt.

Broadly, the IC50 is the concentration needed to halve the response being measured.

T1 sequence (P11802 whole entry): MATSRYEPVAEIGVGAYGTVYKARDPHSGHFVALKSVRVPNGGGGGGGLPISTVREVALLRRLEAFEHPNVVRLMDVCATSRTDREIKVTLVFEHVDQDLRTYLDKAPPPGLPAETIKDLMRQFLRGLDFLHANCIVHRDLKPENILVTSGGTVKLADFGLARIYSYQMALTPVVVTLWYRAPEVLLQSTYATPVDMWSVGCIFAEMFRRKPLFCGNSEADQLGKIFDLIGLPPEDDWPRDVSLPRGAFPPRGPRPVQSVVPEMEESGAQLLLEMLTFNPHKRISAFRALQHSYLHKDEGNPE
T1 sequence (P30281 1-264 partner limits assumed): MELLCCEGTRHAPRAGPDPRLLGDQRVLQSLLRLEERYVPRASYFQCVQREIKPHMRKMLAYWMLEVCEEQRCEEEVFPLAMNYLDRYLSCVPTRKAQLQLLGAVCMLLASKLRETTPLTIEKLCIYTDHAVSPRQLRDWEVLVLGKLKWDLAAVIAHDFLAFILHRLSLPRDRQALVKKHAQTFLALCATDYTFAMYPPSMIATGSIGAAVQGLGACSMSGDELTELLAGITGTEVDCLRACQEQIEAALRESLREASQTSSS

Regarding `CC(C)N(CCNC(=O)c1ccc(Nc2nc(N)c(C(=O)c3c(F)cccc3F)s2)cc1)C(C)C` [Example A23, 4-[4-Amino-5-(2,6-difluoro-benzoyl)-thiazol-2-ylamino]-N-(2-diisopropylamino-ethyl)-benzamide], the Ki on human CDK4/cyclin D3 is 8 nM; at CDK2/cyclin A, 130 nM. Also, in the test on HCT-116 cell line, the IC50 is 100 nM.

For `Nc1nc(Nc2ccc(C(=O)Nc3ccc(CCO)cc3)cc2)sc1C(=O)c1c(F)cccc1F` [Example A24, 4-[4-Amino-5-(2,6-difluoro-benzoyl)-thiazol-2-ylamino]-N-[4-(2-hydroxy-ethyl)-phenyl]-benzamide], the Ki was determined as 94 nM on human CDK4/cyclin D3 and 100 nM on CDK2/cyclin A. Besides, the IC50 in the test with HCT-116 cell line was found to be 160 nM.

Take `Nc1nc(Nc2ccc(C(=O)NCCc3cccs3)cc2)sc1C(=O)c1c(F)cccc1F` [Example A26, 4-[4-Amino-5-(2,6-difluoro-benzoyl)-thiazol-2-ylamino]-N-(2-thiophen-2-yl-ethyl)-benzamide]: the values for the Ki at human CDK4/cyclin D3 and on CDK2/cyclin A were 20 nM and 79 nM, respectively. The IC50 with HCT-116 cell line stood at 170 nM.

Take `Nc1nc(Nc2ccc(C(=O)NCCc3ccncc3)cc2)sc1C(=O)c1c(F)cccc1F` [Example A29, 4-[4-Amino-5-(2,6-difluoro-benzoyl)-thiazol-2-ylamino]-N-(2-pyridin-4-yl-ethyl)-benzamide]: the Ki on human CDK4/cyclin D3 stood at 26 nM; at CDK2/cyclin A it was 52 nM. In the test with HCT-116 cell line, the IC50 came out at 220 nM.

`CN1CC[C@@H](NC(=O)c2ccc(Nc3nc(N)c(C(=O)c4c(F)cccc4F)s3)cc2)C1` [Example A30, 4-[4-Amino-5-(2,6-difluoro-benzoyl)-thiazol-2-ylamino]-N-(1-methyl-pyrrolidin-3R-yl)-benzamide]: the Ki is 7 nM at human CDK4/cyclin D3 and 69 nM at CDK2/cyclin A. In addition, the IC50 in the test on HCT-116 cell line is 90 nM.

Take `CN1CC[C@H](NC(=O)c2ccc(Nc3nc(N)c(C(=O)c4c(F)cccc4F)s3)cc2)C1` [Example A32, 4-[4-Amino-5-(2,6-difluoro-benzoyl)-thiazol-2-ylamino]-N-(1-methyl-pyrrolidin-3S-yl)-benzamide]: the Ki at human CDK4/cyclin D3 stood at 6 nM; on CDK2/cyclin A it was 77 nM. In addition, in the test with HCT-116 cell line, the IC50 was 280 nM.

For the molecule `Nc1nc(Nc2ccc(C(=O)NCC3CCCCN3)cc2)sc1C(=O)c1c(F)cccc1F` (stereo not drawn) [Example A33, 4-[4-Amino-5-(2,6-difluoro-benzoyl)-thiazol-2-ylamino]-N-(piperidin-2RS-ylmethyl)-benzamide Trifluoroacetate Salt], the figures for the Ki on human CDK4/cyclin D3 and at CDK2/cyclin A were 10 nM and 91 nM, respectively. For the same molecule, in the test on HCT-116 cell line, the IC50 is 2200 nM.

As for `CN1CCC[C@@H]1CNC(=O)c1ccc(Nc2nc(N)c(C(=O)c3c(F)cccc3F)s2)cc1` [Example A34, 4-[4-Amino-5-(2,6-difluoro-benzoyl)-thiazol-2-ylamino]-N-(1-methyl-pyrrolidin-2R-ylmethyl)-benzamide], the Ki was 10 nM on human CDK4/cyclin D3 and 99 nM on CDK2/cyclin A. Moreover, the IC50 in the test with HCT-116 cell line was 140 nM.

With `Nc1nc(Nc2ccc(C(=O)NCCN3CCCC3)cc2)sc1C(=O)c1c(F)cccc1F` [Example A35, 4-[4-Amino-5-(2,6-difluoro-benzoyl)-thiazol-2-ylamino]-N-(2-pyrrolidin-1-yl-ethyl)-benzamide], the Ki at human CDK4/cyclin D3 stood at 6 nM; at CDK2/cyclin A, 54 nM. In addition, in the test on HCT-116 cell line, the concentration for half-maximal inhibition (IC50) was found to be 120 nM.

Turning to `C[C@@H](CN(C)C)N(C)C(=O)c1ccc(Nc2nc(N)c(C(=O)c3c(F)cccc3F)s2)cc1` [Example A36, 4-[4-Amino-5-(2,6-difluoro-benzoyl)-thiazol-2-ylamino]-N-(2-dimethylamino-1S-methyl-ethyl)-N-methyl-benzamide], the Ki is 44 nM at human CDK4/cyclin D3 and 223 nM on CDK2/cyclin A. Besides, in the test with HCT-116 cell line, the IC50 came out at 780 nM.

Consider `CCN1CCC[C@H]1CNC(=O)c1ccc(Nc2nc(N)c(C(=O)c3c(F)cccc3F)s2)cc1` [Example A38, 4-[4-Amino-5-(2,6-difluoro-benzoyl)-thiazol-2-ylamino]-N-(1-ethyl-pyrrolidin-2S-yl-methyl)-benzamide], for which the Ki on human CDK4/cyclin D3 is 24 nM; on CDK2/cyclin A it was 140 nM. Further, the IC50 with HCT-116 cell line is 100 nM.

On to `CN(CC1CC1)C(C)(C)CNC(=O)c1ccc(Nc2nc(N)c(C(=O)c3c(F)cccc3F)s2)cc1` [Example A39], for which the values for the Ki on human CDK4/cyclin D3 and at CDK2/cyclin A were 11 nM and 160 nM, respectively. Besides, the IC50 in the test with HCT-116 cell line was determined as 170 nM.

For the molecule `C[C@H](CN(C)C)NC(=O)c1ccc(Nc2nc(N)c(C(=O)c3c(F)cccc3F)s2)cc1` [Example A40, 4-[4-Amino-5-(2,6-difluoro-benzoyl)-thiazol-2-ylamino]-N-(2-dimethylamino-1R-methyl-ethyl)-benzamide Dihydrochloride], the Ki on human CDK4/cyclin D3 was 9 nM; on CDK2/cyclin A, 94 nM. Also, in the test with HCT-116 cell line, the IC50 was 40 nM.

As for `C[C@@H](CN(C)C)NC(=O)c1ccc(Nc2nc(N)c(C(=O)c3c(F)cccc3F)s2)cc1` [Example A41], the Ki at human CDK4/cyclin D3 was 35 nM; on CDK2/cyclin A, 230 nM. In addition, the IC50 with HCT-116 cell line turned out to be 180 nM.

On to `C[C@@H](CNC(=O)c1ccc(Nc2nc(N)c(C(=O)c3c(F)cccc3F)s2)cc1)N(C)C` [Example A42, 4-[4-Amino-5-(2,6-difluoro-benzoyl)-thiazol-2-ylamino]-N-(2S-dimethylamino-propyl)-benzamide], for which the values for the Ki at human CDK4/cyclin D3 and on CDK2/cyclin A were 23 nM and 165 nM, respectively. The IC50 in the test with HCT-116 cell line turned out to be 150 nM.

For the molecule `CN1CCCC[C@H]1CNC(=O)c1ccc(Nc2nc(N)c(C(=O)c3c(F)cccc3F)s2)cc1` [Example A43, 4-[4-Amino-5-(2,6-difluoro-benzoyl)-thiazol-2-ylamino]-N-(1-methyl-piperidin-2S-yl-methyl)-benzamide], the figures for the Ki at human CDK4/cyclin D3 and on CDK2/cyclin A were 13 nM and 109 nM, respectively. In addition, in the test on HCT-116 cell line, the IC50 worked out at 580 nM.

For the molecule `Nc1nc(Nc2ccc(C(=O)NCCN3CC=CC3)cc2)sc1C(=O)c1c(F)cccc1F` [Example A45, 4-[4-Amino-5-(2,6-difluoro-benzoyl)-thiazol-2-ylamino]-N-[2-(2,5-dihydro-pyrrol-1-yl)-ethyl]-benzamide Dihydrochloride Salt], the Ki at human CDK4/cyclin D3 came out at 7 nM; at CDK2/cyclin A it was 48 nM. The IC50 with HCT-116 cell line came to 86 nM.

`C[C@H](CN1CCCCC1)NC(=O)c1ccc(Nc2nc(N)c(C(=O)c3c(F)cccc3F)s2)cc1` [Example A46, 4-[4-Amino-5-(2,6-difluoro-benzoyl)-thiazol-2-ylamino]-N-(1R-methyl-2-piperidin-1-yl-ethyl)-benzamide Trifluoroacetate Salt]: the Ki at human CDK4/cyclin D3 is 15 nM; at CDK2/cyclin A, 220 nM. In addition, the 50% inhibitory concentration (IC50) in the test on HCT-116 cell line stood at 86 nM.
